This passage reports half-life results from publication PMC12632313 (bioRxiv, 2025).

The data set is described as follows: Ex-vivo stability in mouse whole blood. Format: in vitro ADME. The settings on record: male, C57BL/6, mouse.

As a reminder, the half-life is the time needed for the level to fall by half in the phase considered.

Turning to “H-RPPGFSPFR-OH [Bradykinin (BK), Bradykinin]”, the half-life worked out at 3.9 ± 1.3 min.
